Source: PubChem BioAssay AID2060609 (Molecular Pharmacology Branch, DTP, NCI, 2025)

Tested on: 855422-203-R-J1-PDC complex spheroids, viability
Experiment: Anticancer human tumor 855422-203-R-J1-PDC patient-derived bladder carcinoma cell line growth inhibition [CLK]
Conditions: for IC50: curve of first compound; for viability, T/C: stronger effect = lower value
How it was run: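 Patient-derived tumor cells grown as complex spheroids with HUVEC endothelial cells and mesenchymal stem cells, treated with drug combinations. Concentrations descend in half-log steps from near clinical Cmax, or from 10 microM if Cmax unknown.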
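Also: spheroids exposed to drugs for seven days before readout.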
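For viability, T/C in this document: 100% = DMSO vehicle control wells.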

NC(=O)C(=Cn1cnc(-c2cc(C(F)(F)F)cc(C(F)(F)F)c2)n1)c1cncnc1 + CNC(=O)c1ccc(Nc2nc(OC3CCCC3)c3c(-c4ccc5nc(C)oc5c4)c[nH]c3n2)c(OC)c1
IC50 (second compound 0.0316 µM): 69.3 nM | IC50 (second compound 0.1 µM): < 9.49 nM | IC50 (second compound 0.316 µM): < 9.49 nM | IC50 (second compound 1 µM): < 9.49 nM | IC50 (second compound 3.16 µM): < 9.49 nM | IC50 (second compound 10 µM): < 9.49 nM | viability, T/C (second compound 0.0316 µM, first compound 0.00949 µM): 123% | viability, T/C (second compound 0.0316 µM, first compound 0.03 µM): 150% | viability, T/C (second compound 0.0316 µM, first compound 0.0949 µM): 17.6% | viability, T/C (second compound 0.0316 µM, first compound 0.3 µM): 10.1% | viability, T/C (second compound 0.0316 µM, first compound 0.949 µM): 9.34% | viability, T/C (second compound 0.0316 µM, first compound 3 µM): 3.87% | viability, T/C (second compound 0.1 µM, first compound 0.00949 µM): 44.8% | viability, T/C (second compound 0.1 µM, first compound 0.03 µM): 50.1% | viability, T/C (second compound 0.1 µM, first compound 0.0949 µM): 12.1% | viability, T/C (second compound 0.1 µM, first compound 0.3 µM): 6.75% | viability, T/C (second compound 0.1 µM, first compound 0.949 µM): 5.9% | viability, T/C (second compound 0.1 µM, first compound 3 µM): 2.36% | viability, T/C (second compound 0.316 µM, first compound 0.00949 µM): 20.1% | viability, T/C (second compound 0.316 µM, first compound 0.03 µM): 13.7% | viability, T/C (second compound 0.316 µM, first compound 0.0949 µM): 12.3% | viability, T/C (second compound 0.316 µM, first compound 0.3 µM): 6.63% | viability, T/C (second compound 0.316 µM, first compound 0.949 µM): 3.98% | viability, T/C (second compound 0.316 µM, first compound 3 µM): 3% | viability, T/C (second compound 1 µM, first compound 0.00949 µM): 18.6% | viability, T/C (second compound 1 µM, first compound 0.03 µM): 10.4% | viability, T/C (second compound 1 µM, first compound 0.0949 µM): 9.1% | viability, T/C (second compound 1 µM, first compound 0.3 µM): 3.59% | viability, T/C (second compound 1 µM, first compound 0.949 µM): 1.47% | viability, T/C (second compound 1 µM, first compound 3 µM): 0.79% | viability, T/C (second compound 3.16 µM, first compound 0.00949 µM): 14.3% | viability, T/C (second compound 3.16 µM, first compound 0.03 µM): 14% | viability, T/C (second compound 3.16 µM, first compound 0.0949 µM): 6.09% | viability, T/C (second compound 3.16 µM, first compound 0.3 µM): 2.12% | viability, T/C (second compound 3.16 µM, first compound 0.949 µM): 1.2% | viability, T/C (second compound 3.16 µM, first compound 3 µM): 1.63% | viability, T/C (second compound 10 µM, first compound 0.00949 µM): 14.7% | viability, T/C (second compound 10 µM, first compound 0.03 µM): 13.1% | viability, T/C (second compound 10 µM, first compound 0.0949 µM): 7.07% | viability, T/C (second compound 10 µM, first compound 0.3 µM): 1.75% | viability, T/C (second compound 10 µM, first compound 0.949 µM): 1.33% | viability, T/C (second compound 10 µM, first compound 3 µM): 0.47%

Nc1ccccc1NC(=O)c1ccc(CNC(=O)OCc2cccnc2)cc1 + CN1CCN(c2cc(C(=O)Nc3cc4cc(-c5cnn(C)c5)ccc4cn3)ccn2)CC1
IC50 (second compound 0.0316 µM): 846 nM | IC50 (second compound 0.1 µM): 486 nM | IC50 (second compound 0.316 µM): < 31.6 nM | IC50 (second compound 1 µM): < 31.6 nM | IC50 (second compound 3.16 µM): < 31.6 nM | IC50 (second compound 10 µM): < 31.6 nM | viability, T/C (second compound 0.0316 µM, first compound 0.0316 µM): 87% | viability, T/C (second compound 0.0316 µM, first compound 0.1 µM): 72.8% | viability, T/C (second compound 0.0316 µM, first compound 0.316 µM): 68.8% | viability, T/C (second compound 0.0316 µM, first compound 1 µM): 49% | viability, T/C (second compound 0.0316 µM, first compound 3.16 µM): 19.2% | viability, T/C (second compound 0.0316 µM, first compound 10 µM): 0.56% | viability, T/C (second compound 0.1 µM, first compound 0.0316 µM): 65.2% | viability, T/C (second compound 0.1 µM, first compound 0.1 µM): 75.4% | viability, T/C (second compound 0.1 µM, first compound 0.316 µM): 58.4% | viability, T/C (second compound 0.1 µM, first compound 1 µM): 33% | viability, T/C (second compound 0.1 µM, first compound 3.16 µM): 10.7% | viability, T/C (second compound 0.1 µM, first compound 10 µM): 0.05% | viability, T/C (second compound 0.316 µM, first compound 0.0316 µM): 5.43% | viability, T/C (second compound 0.316 µM, first compound 0.1 µM): 5.82% | viability, T/C (second compound 0.316 µM, first compound 0.316 µM): 9.34% | viability, T/C (second compound 0.316 µM, first compound 1 µM): 3.91% | viability, T/C (second compound 0.316 µM, first compound 3.16 µM): 0.28% | viability, T/C (second compound 0.316 µM, first compound 10 µM): 0.06% | viability, T/C (second compound 1 µM, first compound 0.0316 µM): 0.15% | viability, T/C (second compound 1 µM, first compound 0.1 µM): 0.19% | viability, T/C (second compound 1 µM, first compound 0.316 µM): 0.13% | viability, T/C (second compound 1 µM, first compound 1 µM): 0.09% | viability, T/C (second compound 1 µM, first compound 3.16 µM): 0.12% | viability, T/C (second compound 1 µM, first compound 10 µM): 0.09% | viability, T/C (second compound 3.16 µM, first compound 0.0316 µM): 0.53% | viability, T/C (second compound 3.16 µM, first compound 0.1 µM): 1.31% | viability, T/C (second compound 3.16 µM, first compound 0.316 µM): 0.28% | viability, T/C (second compound 3.16 µM, first compound 1 µM): 0.49% | viability, T/C (second compound 3.16 µM, first compound 3.16 µM): 0.96% | viability, T/C (second compound 3.16 µM, first compound 10 µM): 0.28% | viability, T/C (second compound 10 µM, first compound 0.0316 µM): 0.2% | viability, T/C (second compound 10 µM, first compound 0.1 µM): 0.34% | viability, T/C (second compound 10 µM, first compound 0.316 µM): 0.42% | viability, T/C (second compound 10 µM, first compound 1 µM): 0.36% | viability, T/C (second compound 10 µM, first compound 3.16 µM): 0.31% | viability, T/C (second compound 10 µM, first compound 10 µM): 0.24%
